Key:
healthy human subjects [1] = test: Pooled analysis: autonomic response to MDMA (blood pressure, heart rate, body temperature; Emax)
[2] = poor vs extensive/normal metabolizers; de la Torre et al., 2005; Schmid et al., 2016; cited from earlier work
[3] = Pooled analysis of ten placebo-controlled crossover studies: MDMA plasma concentration (AUC 0-6 h)
healthy human subjects [4] = test: Pooled analysis: subjective response to MDMA (VAS, AMRS, 5D-ASC)

Q: With CNC(C)Cc1ccc2c(c1)OCO2 (racemic) [MDMA, (±)3,4-methylenedioxymethamphetamine] as the compound, how does the “Heart rate increase, relation to older age” value (healthy human subjects [1]; LASSO model (FIG. 3)) read?
A: lower heart rate increase

Q: And the “Temperature increase, relation to older age” value (healthy human subjects [1]; LASSO model (FIG. 3))?
A: lower temperature increase

Q: And the “Heart rate, correlation with age” value (healthy human subjects [1]; adjusted for dose per body weight (FIG. 2), p<0.05)?
A: inverse correlation between heart rate and age remained significant

Q: And the “MDMA blood plasma concentrations in CYP2D6 poor metabolizers” value [2]?
A: higher MDMA blood plasma concentrations than extensive/normal metabolizers

Q: And the “MDMA plasma concentration, relation to genetically determined CYP2D6 activity” value ([3]; adjusted for dose per body weight (FIG. 2), p<0.01)?
A: still inversely correlated with the MDMA plasma concentration

Q: And the “MDMA concentrations and response in subjects with poor CYP2D6 activity” value ([3]; poor vs extensive CYP2D6 metabolizers (FIGS. 1 and 2))?
A: higher MDMA concentrations and a stronger MDMA response compared with CYP2D6 extensive metabolizers

Q: And the “MDMA plasma AUC over 6 hours, women vs men” value ([3]; similar total doses, not accounting for body weight)?
A: women exhibit significantly higher MDMA plasma AUC than men

Q: And the “Bad drug effect, relation to older age” value (healthy human subjects [4]; LASSO model (FIG. 3))?
A: higher bad drug effect

Q: And the “Strongest predictor of outcome effects after MDMA (plasma AUC, MAP increase, AMRS, VAS, 5D-ASC ratings)” value (healthy human subjects [4]; LASSO model (FIG. 3))?
A: dose per body weight is the strongest predictor

Q: And the “Sex as predictor of response” value (healthy human subjects [4]; adjusted for dose and body weight (FIG. 2))?
A: lost its predictor value

Q: What about the “Effect of well-being (AMRS) before MDMA on response” value (healthy human subjects [4]; dose-adjusted (FIG. 2)) of the same compound?
A: no significant effect as predictor variable on the response to MDMA

Q: And the “Dread of ego dissolution and impaired control and cognition (5D-ASC) in subjects with higher neuroticism (NEO-FFI) and trait anxiety (STAI-T)” value (healthy human subjects [4]; dose-adjusted (FIG. 2), both p<0.01 and both p<0.05)?
A: more likely to experience “dread of ego dissolution” and “impaired control and cognition”

Q: What about the “Closeness (VAS), oceanic boundlessness and visionary restructuralization (5D-ASC), relation to openness to experience (NEO-FFI)” value (healthy human subjects [4]; dose-adjusted (FIG. 2), p<0.05, p<0.05, p<0.01) of the same compound?
A: positively correlated

Q: What about the “Effect of past use of MDMA on response” value (healthy human subjects [4]; past use within the range of 0-5 times (FIG. 2 and FIG. 3)) of the same compound?
A: no significant effect on the response to MDMA

Q: And the “Good drug effect / positive effects, relation to dose” value (healthy human subjects [4]; within range of doses tested (75 and 125 mg))?
A: a high dose of MDMA (>75 mg) is needed to produce greater positive effects

Q: What about the “Intensity of response at high dose of MDMA per body weight” value (healthy human subjects [4]; within the 75-125 mg absolute dose range (FIG. 1)) of the same compound?
A: more intense response to MDMA with more positive and more cardiostimulant effects

From patent US20210386704A1, “MDMA RESPONSE PREDICTION” (Universitätsspital Basel, priority 2020, published 2021)
